The values that follow are results of earlier work, collected in patent US6953823B2, “Elastomeric insulating composition for a solid propellant rocket motor” (Chung Shan Institute of Science and Technology, priority 2003, dated 2005).

The structures appear in SMILES notation.

In the data set the test system is rats.

Regarding `[OH-].[OH-].[OH-].[OH-].[OH-].[OH-].[Sn+4].[Zn+2]` [Zinc Hydroxystannate, zinc hydroxystannate], the “Oral Toxicity (LD50, rats)” value was greater than 5 gr/kg.
